Where “and” joins values, the source holds several entries; their conditions need not be identical. Equal entries are not always repeated. Where two headings read alike, the source gives them in different places.
Experiments:
[1] = Jet milling: milled physical properties; type: physicochemical
Text: Particle size reduction can be achieved by jet milling using a 0202 Jet o Mizer loop Mill. Particle collisions are enabled by nitrogen gas supplied at high pressure to the milling chamber via two grinding nozzles. The feed rate of the drug substance into the mill is controlled by a feeder that supplies drug substance into the feed hopper of the mill at a visually consistent feed rate. High pressure nitrogen gas is supplied through the venturi nozzle to inject drug substance from the mill feed hopper into the milling chamber, and this is referred to as the venture pressure. The grinding and venturi pressures are adjusted to the desired level before the start of milling, and both are kept at the same level unless product blow back from the feed hopper is observed. The venturi pressure is typically adjusted to 10 PSI above the grinding pressure. The micronized drug substance exits via the mill chamber outlet to be collected in the product collection unit consisting of a combined cyclone and porous fabric filter media assembly. Milling parameters may be adjusted based on sample analysis. Particle sizes that range between 12.7 μm and 24.0 μm (D90 by laser-light scattering) are achieved from the milling operation.

[2] = for AUC (Mean) / Dissolution Rate (Mean): 150 mg in 250 mL (0.60 mg/mL API equivalent), 37° C.
Description: Microdissolution Microdissolution experiments were conducted in a pIon μDiss Profiler microdissolution instrument (pION μDiss Profiler) with a fiber optic UV monitoring system, as follows: Probes: 2.5 mm probes (5 mm path length) Volume: 15 ml Stirring: 150 rpm Temperature: 37° C. […] The target doses were 150 mg in 250 mL (0.60 mg/mL API equivalent) in FaSSIF (pH 6.5) and FeSSIF (pH 5).

[3] = pH solubility of Compound 1 MSA Salt Form 1; type: physicochemical
Description: Measurements were taken using an Orion ATI Model 370 pH meter. […] To each vial was added 5 mL of various aqueous acidic and basic solutions. Each vial was stoppered and vortexed and sonicated to mix well. The pH of each sample was recorded. […] After 24 hours of stirring, the pH of each sample (as a suspension) was recorded. Suspensions were filtered with 0.2 micron Acrodisc syringe filters. The clear filtrates were collected and vortexed to mix well pH of each filtrated was recorded. pH of suspension and filtrate were nearly identical. A 1.0 mL aliquot of each of the filtrates 25-fold using 50% acetonitrile/50% Milli-Q water, q.w. each flask to 25 mL. […] Samples were assayed using the following HPLC method: Column: […] Mobile phase Solvent A: Water w/0.05% TFA • Solvent B: Acetonitrile w/0.05% TFA […] Column temperature: Ambient RT Detector Wavelength: 250 nm […] Working Concentration: […] Added 20 mL of 100% acetonitrile to the vial. Stoppered, vortexed, and sonicated the vial. […] Transferred the suspension to a 250 mL glass volumetric flask, and washed out the glass vial with 4×20 mL 50% acetonitrile/50% Milli-Q water, transferring each wash into the volumetric flask. All solids dissolved. Q.S. the volumetric flask to 250 mL final volume using 50% acetonitrile/50% Milli Q water, shake to give standard solution at 101.5 mcg/mL.

[4] = in vivo
[5] = type: physicochemical
Description: Stability Testing Chromatographic Conditions: VHPLC Parameters VHPLC System: Waters AcQuity BSM or […] system equipped with a Waters UV/Vis Detector Column: Ascentis Express C18, 150 mm×2.1 mm i.d., 2.7 um particle size. Detector Wavelength: 218 nm VHPLC detector time constrat: normal VHPLC sampling rate: 20 Hz […] Flow Rate: 0.5 mL/min Injection volume 1 uL Column temperature: 30° C. Run time: 14 minutes Sample temperature: 5° C. Mobile Phase A: water:acetonitrile:TFA (95:5:0.05) Mobile Phase B: water: acetonitrile:TFA (5:95:0.05) [table] […] The study consisted of one batch of drug substance packaged in double LDPE bags, placed in a 0.6 L HDPE paid with a lid and gasket.

[6] = No. 1 Long Term, 5° C., 1 month
[7] = No. 1 Long Term, 5° C., 3 months
[8] = No. 1 Long Term, 5° C., 6 months
[9] = No. 1 Long Term, 5° C., 12 months
[10] = No. 2 Long Term, 25° C./60% RH, 1 month
[11] = No. 2 Long Term, 25° C./60% RH, 3 months
[12] = No. 2 Long Term, 25° C./60% RH, 6 months
[13] = No. 2 Long Term, 25° C./60% RH, 12 months
[14] = No. 3 Accelerated, 40° C./75% RH, 1 month
[15] = No. 3 Accelerated, 40° C./75% RH, 2 weeks
[16] = No. 3 Accelerated, 40° C./75% RH, 3 months
[17] = No. 3 Accelerated, 40° C./75% RH, 6 months
[18] = No. 5 Stress, 40° C./75% RH exposed, 1 month
[19] = No. 5 Stress, 40° C./75% RH exposed, 2 weeks
[20] = No. 5 Stress, 40° C./75% RH exposed, 3 months
[21] = No. 5 Stress, 40° C./75% RH exposed, 6 months
[22] = No. 7 Stress, 25° C./HIL/UVA Exposed, 2 weeks
[23] = No. 7 Stress, 25° C./HIL/UVA Exposed, 4 days
[24] = No. 7 Stress, 25° C./HIL/UVA protected, 2 weeks
[25] = No. 7 Stress, 25° C./HIL/UVA protected, 4 days

Bulk density ([1]; for sample with D90 of 22.3 μm): 0.193 g/mL
D50 ([1]; range from 0202 Jet Mill): 6.2-9.8 μm
Surface area ([1]; range from 0202 Jet Mill): 2.08-3.63 m^2/g
D90 ([1]; range from 0202 Jet Mill, laser-light scattering): 12.7-24.0 μm
rate and extent of dissolution compared to an amorphous form or HCl salts (amorphous and crystalline) ([2]; Example 14, FIG. 7, both FeSSiF and FaSSiF, simulated 150 mg human dose): faster rate and extent of dissolution
rate and extent of dissolution compared to Compound 1 free base (amorphous) ([2]; Example 14, FIG. 8, FaSSIF and FeSSIF at 0.2 mg/mL): faster rate and extent of dissolution
rate of dissolution ([2]; Example 16, FeSSIF): 38 µg/mL/min
AUC (Mean) ([2]; FaSSIF (pH 6.5)): 14988.073 µg·min/mL
Dissolution Rate (Mean) ([2]; FaSSIF (pH 6.5)): 2.460 µg/mL/min
AUC (Mean) ([2]; FeSSIF (pH 5)): 46410.396 µg·min/mL
Dissolution Rate (Mean) ([2]; FeSSIF (pH 5)): 38.850 µg/mL/min
Peak Solubility (Mean) ([2]; pH 5): 271.564 µg/mL
Peak Solubility (Mean) ([2]; pH 6.5): 100.877 µg/mL
Solubility ([3]; pH 0.49): 24 µg/mL
Solubility ([3]; pH 1.01): 73 µg/mL
Solubility ([3]; pH 2.46): 147 µg/mL
Solubility ([3]; pH 2.7): 85 µg/mL
Solubility ([3]; pH 3.14): 18 µg/mL
Solubility ([3]; pH 3.61): 3 µg/mL
Solubility ([3]; pH 4.53): 1 µg/mL
Solubility ([3]; pH 6.82): 1 µg/mL
Solubility ([3]; pH 7): 96 µg/mL
Solubility ([3]; pH 9.68): 2 µg/mL
oral bioavailability [4]: increased oral bioavailability
photostability study conclusion [5]: does not need to be protected from light
Assay “as is” [5, 6]: 81.9%
Assay “corrected” [5, 6]: 100.5%
Assay “as is” [5, 7]: 82.4%
Assay “corrected” [5, 7]: 101.1%
Assay “as is” [5, 8]: 81.2%
Assay “corrected” [5, 8]: 99.6%
Assay “as is” [5, 9]: 81.7%
Assay “corrected” [5, 9]: 100.5%
Assay “as is” [5, 10]: 82.1%
Assay “corrected” [5, 10]: 100.8%
Assay “as is” [5, 11]: 81.7%
Assay “corrected” [5, 11]: 100.4%
Assay “as is” [5, 12]: 81.2%
Assay “corrected” [5, 12]: 99.7%
Assay “as is” [5, 13]: 81.1%
Assay “corrected” [5, 13]: 99.8%
Assay “as is” [5, 14]: 82.3%
Assay “corrected” [5, 14]: 101.0%
Assay “as is” [5, 15]: 80.7%
Assay “corrected” [5, 15]: 99.1%
Assay “as is” [5, 16]: 81.5%
Assay “corrected” [5, 16]: 100.1%
Assay “as is” [5, 17]: 81.8%
Assay “corrected” [5, 17]: 100.4%
Assay “as is” ([5]; No. 4 Stress, −20° C., 1 month): 82.4%
Assay “corrected” ([5]; No. 4 Stress, −20° C., 1 month): 101.1%
Assay “as is” [5, 18]: 81.6%
Assay “corrected” [5, 18]: 100.3%
Assay “as is” [5, 19]: 80.9%
Assay “corrected” [5, 19]: 99.3%
Assay “as is” [5, 20]: 81.4%
Assay “corrected” [5, 20]: 99.9%
Assay “as is” [5, 21]: 80.3%
Assay “corrected” [5, 21]: 98.6%
Assay “as is” ([5]; No. 6 Stress, 50° C., 1 month): 82.0%
Assay “corrected” ([5]; No. 6 Stress, 50° C., 1 month): 100.7%
Assay “as is” ([5]; No. 6 Stress, 50° C., 2 weeks): 80.8%
Assay “corrected” ([5]; No. 6 Stress, 50° C., 2 weeks): 99.2%
Assay “as is” ([5]; No. 6 Stress, 50° C., 3 months): 82.2%
Assay “corrected” ([5]; No. 6 Stress, 50° C., 3 months): 100.9%
Assay “as is” [5, 22]: 78.7%
Assay “corrected” [5, 22]: 96.8%
Assay “as is” [5, 23]: 80.8%
Assay “corrected” [5, 23]: 99.2%
Assay “as is” [5, 24]: 80.4%
Assay “corrected” [5, 24]: 98.7%
Assay “as is” [5, 25]: 81.1%
Assay “corrected” [5, 25]: 99.5%
storage time remained stable ([5]; accelerated condition of 40° C./75% RH): ≥ 6 months
changes in XRD pattern ([5]; after any of the study numbers): No changes
change in total impurities on light exposure ([5]; approximately 3.5 times the minimum ICH exposure): slight increase
Color and appearance (white or off-white powder or powder with lumps) ([5]; during the studies): maintained
4-chloroaniline (impurity) ([5]; initial): 0.09%
enantiomeric impurity of Compound 1 ([5]; initial): < 0.05%
total impurities ([5]; initial): 0.57%
water content ([5]; initial): < 0.1 % w/w
Assay “as is” ([5]; initial (average of 2 results)): 79.0% and 79.0^1%
Assay “corrected” ([5]; initial (average of 2 results)): 97.0% and 97.0^1%
storage time remained stable ([5]; long-term conditions of 5° C. and 25° C./60% relative humidity (RH)): at least 12 months
changes on light exposure ([5]; minimum ICH Q1B exposure): Essentially no changes
storage time remained stable ([5]; stress condition of 50° C.): ≥ 3 months
total impurities ([5]; study number 3): 0.48%
total impurities ([5]; study number 6): 0.50%
changes in assay “as is” or “corrected” from initial ([5]; study numbers 1, 2, 3, and 5): Essentially no changes
changes in enantiomeric impurity ([5]; study numbers 1 and 2): No changes
changes in water content ([5]; study numbers 1 and 2): Essentially no changes
4-chloroaniline (impurity) ([5]; study numbers 3 and 6 (both conditions)): < 0.05%
changes in total impurities from initial ([5]; study numbers 4, 1, 2, and 3): Essentially no changes
Structure (SMILES): CS(=O)(=O)O.C[C@@H](C(=O)Nc1ccc(Cl)cc1)[C@H]1CC[C@@H](c2ccnc3ccc(F)cc32)CC1 [Compound 1 MSA Salt Form 1, (R)-N-(4-chlorophenyl)-2-((1S,4S)-4-(6-fluoroquinolin-4-yl)cyclohexyl)propanamide methanesulfonate]

— patent US11236049B2, “Amorphous and crystalline forms of IDO inhibitors” (BRISTOL-MYERS SQUIBB COMPANY, priority 2017, dated 2022)
